Data from ChEMBL document CHEMBL5291721, “A preclinical secondary pharmacology resource illuminates target-adverse drug reaction associations of marketed drugs” (Nat Commun, 2023).

Key:
[1] = target: T1, Alpha-2A adrenergic receptor (Homo sapiens, UniProt P08913); format: functional, cell-based
T1 sequence (P08913 whole entry): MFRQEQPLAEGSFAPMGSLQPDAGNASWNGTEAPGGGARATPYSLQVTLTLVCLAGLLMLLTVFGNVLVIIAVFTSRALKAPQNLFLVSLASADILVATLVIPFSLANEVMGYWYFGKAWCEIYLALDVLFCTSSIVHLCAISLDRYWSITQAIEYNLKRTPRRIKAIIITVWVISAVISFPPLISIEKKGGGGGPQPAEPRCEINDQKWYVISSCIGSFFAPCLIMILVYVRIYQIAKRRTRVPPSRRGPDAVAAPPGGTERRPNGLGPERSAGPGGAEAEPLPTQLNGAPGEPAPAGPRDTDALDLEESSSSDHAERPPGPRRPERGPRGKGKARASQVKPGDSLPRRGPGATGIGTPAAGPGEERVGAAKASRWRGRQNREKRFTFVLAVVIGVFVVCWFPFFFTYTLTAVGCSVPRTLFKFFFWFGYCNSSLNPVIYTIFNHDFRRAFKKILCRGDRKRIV

[2] = target: T2, Cholecystokinin receptor type A (Homo sapiens, UniProt P32238)
T2 sequence (P32238 whole entry): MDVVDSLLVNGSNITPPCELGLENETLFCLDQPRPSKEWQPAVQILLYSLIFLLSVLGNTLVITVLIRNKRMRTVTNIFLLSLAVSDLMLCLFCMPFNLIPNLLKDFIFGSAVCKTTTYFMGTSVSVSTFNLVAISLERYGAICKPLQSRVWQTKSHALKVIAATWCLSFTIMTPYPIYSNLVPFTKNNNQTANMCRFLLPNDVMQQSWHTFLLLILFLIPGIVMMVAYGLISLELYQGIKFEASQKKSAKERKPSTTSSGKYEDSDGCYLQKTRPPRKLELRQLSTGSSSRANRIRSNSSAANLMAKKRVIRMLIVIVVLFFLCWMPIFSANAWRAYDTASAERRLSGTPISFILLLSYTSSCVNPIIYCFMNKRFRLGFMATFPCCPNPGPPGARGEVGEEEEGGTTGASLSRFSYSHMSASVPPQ

[3] = target: T3, Muscarinic acetylcholine receptor M2 (Homo sapiens, UniProt P08172); format: functional, cell-based
T3 sequence (P08172 whole entry): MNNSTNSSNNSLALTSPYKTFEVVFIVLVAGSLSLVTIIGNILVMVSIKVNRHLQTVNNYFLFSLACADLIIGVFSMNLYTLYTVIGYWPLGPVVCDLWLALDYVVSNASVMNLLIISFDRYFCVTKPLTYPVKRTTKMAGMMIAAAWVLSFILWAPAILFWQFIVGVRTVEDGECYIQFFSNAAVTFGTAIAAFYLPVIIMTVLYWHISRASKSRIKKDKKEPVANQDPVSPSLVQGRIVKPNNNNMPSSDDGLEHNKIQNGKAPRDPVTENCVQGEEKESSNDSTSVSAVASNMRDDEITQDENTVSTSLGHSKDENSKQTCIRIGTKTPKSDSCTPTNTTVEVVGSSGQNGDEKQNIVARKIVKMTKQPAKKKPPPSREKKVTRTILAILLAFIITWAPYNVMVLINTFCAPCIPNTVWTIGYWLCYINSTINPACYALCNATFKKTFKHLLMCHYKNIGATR

D(1A) dopamine receptor = D(1A) dopamine receptor (Homo sapiens, UniProt P21728); format: functional, cell-based
[4] = target: Voltage-gated inwardly rectifying potassium channel KCNH2 (Homo sapiens, UniProt Q12809); format: functional; conditions: read-out: AC50
[5] = target: 5-hydroxytryptamine receptor 2B (Homo sapiens, UniProt P41595); format: functional, cell-based
Melanocortin receptor 3 = Melanocortin receptor 3 (Homo sapiens, UniProt P41968)
[6] = target: T4, Alpha-2C adrenergic receptor (Homo sapiens, UniProt P18825); format: functional
T4 sequence (P18825 whole entry): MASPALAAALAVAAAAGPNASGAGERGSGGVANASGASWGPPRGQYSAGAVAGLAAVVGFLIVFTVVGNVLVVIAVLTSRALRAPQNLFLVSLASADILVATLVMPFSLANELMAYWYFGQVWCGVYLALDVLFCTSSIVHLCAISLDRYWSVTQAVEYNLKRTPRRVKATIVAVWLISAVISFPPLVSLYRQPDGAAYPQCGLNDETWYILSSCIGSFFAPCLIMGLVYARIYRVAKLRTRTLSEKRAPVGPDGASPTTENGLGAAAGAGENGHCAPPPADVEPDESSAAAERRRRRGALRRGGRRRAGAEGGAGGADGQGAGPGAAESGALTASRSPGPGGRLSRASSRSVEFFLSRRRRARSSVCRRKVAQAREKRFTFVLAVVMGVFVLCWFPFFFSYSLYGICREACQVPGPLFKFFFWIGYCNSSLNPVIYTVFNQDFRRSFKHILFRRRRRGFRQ

Vasopressin V2 receptor = Vasopressin V2 receptor (Homo sapiens, UniProt P30518)
Histamine H2 receptor = Histamine H2 receptor (Homo sapiens, UniProt P25021); format: functional, cell-based
B2 bradykinin receptor = target: T5, B2 bradykinin receptor (Homo sapiens, UniProt P30411)
T5 sequence (P30411 whole entry): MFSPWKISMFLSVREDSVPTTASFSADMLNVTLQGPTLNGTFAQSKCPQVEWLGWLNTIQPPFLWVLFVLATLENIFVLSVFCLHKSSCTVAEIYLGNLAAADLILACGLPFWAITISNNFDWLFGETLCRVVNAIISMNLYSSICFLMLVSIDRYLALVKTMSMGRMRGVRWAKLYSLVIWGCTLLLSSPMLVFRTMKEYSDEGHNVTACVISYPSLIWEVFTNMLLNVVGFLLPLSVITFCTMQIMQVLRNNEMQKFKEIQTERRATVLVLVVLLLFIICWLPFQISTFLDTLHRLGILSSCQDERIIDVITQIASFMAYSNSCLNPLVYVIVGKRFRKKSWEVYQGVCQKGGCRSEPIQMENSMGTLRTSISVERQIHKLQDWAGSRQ
Also: assay procedure not described here.

Chain of Vasopressin V2 receptor (P30518 whole entry): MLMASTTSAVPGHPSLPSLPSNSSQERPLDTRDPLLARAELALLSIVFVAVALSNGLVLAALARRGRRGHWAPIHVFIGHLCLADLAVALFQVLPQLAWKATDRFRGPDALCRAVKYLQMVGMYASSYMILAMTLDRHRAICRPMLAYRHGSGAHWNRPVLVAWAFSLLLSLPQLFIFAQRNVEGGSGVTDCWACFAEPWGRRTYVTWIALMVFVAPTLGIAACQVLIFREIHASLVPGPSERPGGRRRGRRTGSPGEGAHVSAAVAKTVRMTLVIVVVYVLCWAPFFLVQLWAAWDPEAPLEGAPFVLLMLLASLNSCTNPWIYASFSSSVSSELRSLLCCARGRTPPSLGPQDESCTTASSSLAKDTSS
Chain of Melanocortin receptor 3 (P41968 whole entry): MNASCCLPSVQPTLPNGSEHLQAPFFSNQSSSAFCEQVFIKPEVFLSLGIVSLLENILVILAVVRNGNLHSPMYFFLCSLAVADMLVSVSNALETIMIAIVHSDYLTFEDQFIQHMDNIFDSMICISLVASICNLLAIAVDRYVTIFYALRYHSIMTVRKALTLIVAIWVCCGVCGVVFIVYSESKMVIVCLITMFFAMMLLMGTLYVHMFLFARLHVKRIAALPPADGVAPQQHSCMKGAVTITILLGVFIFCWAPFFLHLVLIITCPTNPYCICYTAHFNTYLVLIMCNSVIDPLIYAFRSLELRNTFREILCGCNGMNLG
Chain of D(1A) dopamine receptor (P21728 whole entry): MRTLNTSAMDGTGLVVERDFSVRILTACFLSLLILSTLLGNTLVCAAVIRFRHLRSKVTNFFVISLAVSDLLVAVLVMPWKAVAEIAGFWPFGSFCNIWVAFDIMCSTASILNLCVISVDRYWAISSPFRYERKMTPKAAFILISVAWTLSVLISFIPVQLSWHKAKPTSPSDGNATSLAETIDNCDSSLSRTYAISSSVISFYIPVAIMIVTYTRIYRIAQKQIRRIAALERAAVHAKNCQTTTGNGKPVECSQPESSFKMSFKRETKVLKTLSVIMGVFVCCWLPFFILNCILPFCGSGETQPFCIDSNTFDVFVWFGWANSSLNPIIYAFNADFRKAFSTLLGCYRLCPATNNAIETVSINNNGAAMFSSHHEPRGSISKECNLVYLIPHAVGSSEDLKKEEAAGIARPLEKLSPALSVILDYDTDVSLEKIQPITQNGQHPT
Chain of Voltage-gated inwardly rectifying potassium channel KCNH2 (Q12809 whole entry): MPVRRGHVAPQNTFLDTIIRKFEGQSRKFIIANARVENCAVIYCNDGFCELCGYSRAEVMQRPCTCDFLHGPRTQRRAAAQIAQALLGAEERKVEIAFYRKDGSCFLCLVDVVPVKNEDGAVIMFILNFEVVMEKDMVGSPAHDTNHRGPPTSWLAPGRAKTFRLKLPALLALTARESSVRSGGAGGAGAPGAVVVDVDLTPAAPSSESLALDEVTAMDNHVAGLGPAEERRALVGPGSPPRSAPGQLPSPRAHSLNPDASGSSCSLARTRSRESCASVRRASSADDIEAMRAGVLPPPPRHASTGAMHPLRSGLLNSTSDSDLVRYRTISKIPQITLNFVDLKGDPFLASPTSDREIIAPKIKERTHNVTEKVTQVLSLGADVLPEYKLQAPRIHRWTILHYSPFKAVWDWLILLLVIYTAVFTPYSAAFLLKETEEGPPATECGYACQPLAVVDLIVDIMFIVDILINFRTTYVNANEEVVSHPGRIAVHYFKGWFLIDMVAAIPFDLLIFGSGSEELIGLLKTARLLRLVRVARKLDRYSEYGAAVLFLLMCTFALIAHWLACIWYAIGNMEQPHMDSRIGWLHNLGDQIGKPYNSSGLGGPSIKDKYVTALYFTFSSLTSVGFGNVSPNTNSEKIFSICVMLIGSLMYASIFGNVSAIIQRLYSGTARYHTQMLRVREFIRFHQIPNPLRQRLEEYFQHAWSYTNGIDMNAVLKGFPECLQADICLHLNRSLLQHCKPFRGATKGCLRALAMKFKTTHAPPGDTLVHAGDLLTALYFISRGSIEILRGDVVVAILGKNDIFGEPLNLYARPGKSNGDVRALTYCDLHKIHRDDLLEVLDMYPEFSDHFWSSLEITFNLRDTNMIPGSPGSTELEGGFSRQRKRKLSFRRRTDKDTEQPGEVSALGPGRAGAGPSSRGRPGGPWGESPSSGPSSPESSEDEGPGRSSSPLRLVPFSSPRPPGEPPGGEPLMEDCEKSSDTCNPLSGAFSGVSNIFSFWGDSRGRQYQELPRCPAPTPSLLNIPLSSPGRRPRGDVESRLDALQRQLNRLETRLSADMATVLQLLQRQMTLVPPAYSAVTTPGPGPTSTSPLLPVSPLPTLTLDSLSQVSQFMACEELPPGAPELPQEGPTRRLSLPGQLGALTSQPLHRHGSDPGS
Chain of 5-hydroxytryptamine receptor 2B (P41595 whole entry): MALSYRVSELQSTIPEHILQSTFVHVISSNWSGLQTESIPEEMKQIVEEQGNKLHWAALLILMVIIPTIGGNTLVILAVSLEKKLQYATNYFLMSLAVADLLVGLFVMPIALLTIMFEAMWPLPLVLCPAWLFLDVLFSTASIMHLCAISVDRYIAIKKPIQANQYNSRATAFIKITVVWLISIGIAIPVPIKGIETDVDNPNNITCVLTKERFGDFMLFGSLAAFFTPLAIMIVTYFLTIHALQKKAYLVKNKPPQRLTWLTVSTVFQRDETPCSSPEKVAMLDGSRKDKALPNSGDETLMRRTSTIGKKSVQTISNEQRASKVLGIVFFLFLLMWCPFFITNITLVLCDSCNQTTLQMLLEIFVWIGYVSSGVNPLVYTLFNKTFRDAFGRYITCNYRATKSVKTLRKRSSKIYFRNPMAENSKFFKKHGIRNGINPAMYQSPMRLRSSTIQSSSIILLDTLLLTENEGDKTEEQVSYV
Chain of Histamine H2 receptor (P25021 whole entry): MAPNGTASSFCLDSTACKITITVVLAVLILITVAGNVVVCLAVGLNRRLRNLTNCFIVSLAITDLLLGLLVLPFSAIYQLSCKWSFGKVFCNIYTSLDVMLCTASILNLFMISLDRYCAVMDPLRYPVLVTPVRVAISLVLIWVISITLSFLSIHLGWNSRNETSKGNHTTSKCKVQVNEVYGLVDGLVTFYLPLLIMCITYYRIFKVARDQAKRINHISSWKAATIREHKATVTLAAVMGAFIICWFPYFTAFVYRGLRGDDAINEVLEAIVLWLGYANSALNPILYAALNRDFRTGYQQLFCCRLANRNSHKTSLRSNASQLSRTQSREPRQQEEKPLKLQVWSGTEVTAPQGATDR

| Structure (SMILES) | AC50 [1] [µM] | AC50 [2] [µM] | AC50 [3] [µM] | AC50 (D(1A) dopamine receptor) [µM] | AC50 [4] [µM] | AC50 [5] [µM] | AC50 (Melanocortin receptor 3) [µM] | AC50 [6] [µM] | AC50 (Vasopressin V2 receptor) [µM] | AC50 (Histamine H2 receptor) [µM] | AC50 (B2 bradykinin receptor) [µM] |
| --- | --- | --- | --- | --- | --- | --- | --- | --- | --- | --- | --- |
| CNS(=O)(=O)Cc1ccc2[nH]cc(CCN(C)C)c2c1 | > 30 | > 30 | > 30 | > 30 | > 30 | > 10 | > 30 | > 30 | > 30 | > 30 | > 30 |
| CC=CC(=O)N(CC)c1ccccc1C | > 10 | > 10 | > 10 | > 10 | > 30 | > 10 | > 10 | > 10 | > 10 | > 10 | > 10 |
| NCC[C@H](O)C(=O)N[C@@H]1C[C@H](N)[C@@H](O[C@H]2O[C@H](CN)[C@@H](O)[C@H](O)[C@H]2O)[C@H](O)[C@H]1O[C@H]1O[C@H](CO)[C@@H](O)[C@H](N)[C@H]1O [AMIKACIN] | > 10 | > 10 | > 10 | > 10 | > 30 | > 10 | > 10 | > 10 | > 10 | > 10 | > 10 |
| CCOC(=O)OC(C)OC1=C(C(=O)Nc2ccccn2)N(C)S(=O)(=O)c2ccccc21 (stereo not drawn) [AMPIROXICAM] | > 30 | > 30 | > 30 | > 30 | > 30 | 10 | > 30 | > 30 | > 30 | > 30 | > 30 |
| CO/N=C(\C(=O)N[C@@H]1C(=O)N2C(C(=O)O)=C(CSc3nnnn3C)CS[C@H]12)c1csc(N)n1 [CEFMENOXIME] | > 30 | > 30 | > 30 | > 30 | > 30 | > 30 | > 30 | > 30 | > 30 | > 30 | > 30 |
| C#C[C@]1(O)CC[C@H]2[C@@H]3CCC4=Cc5oncc5C[C@]4(C)[C@H]3CC[C@@]21C [DANAZOL] | > 10 | > 10 | > 10 |  | > 30 | > 10 | > 10 | > 10 | > 10 | > 10 | > 10 |
| Cn1c(=O)c2c(ncn2CC2OCCO2)n(C)c1=O [DOXOFYLLINE] | > 30 | > 30 | > 30 | > 30 | > 30 | > 30 | > 30 | > 30 | > 10 | > 30 | > 30 |
| CCc1c(Cl)c(O)c(Cl)c(O)c1C(=O)O[C@H]1[C@H](O)[C@H](OC)[C@H](OC/C2=C\C=C\C[C@H](O)/C(C)=C/[C@H](CC)[C@@H](O[C@@H]3OC(C)(C)[C@@H](OC(=O)C(C)C)[C@H](O)[C@@H]3O)/C(C)=C/C(C)=C/C[C@@H]([C@@H](C)O)OC2=O)O[C@@H]1C [FIDAXOMICIN] |  |  |  |  | > 30 | > 30 | > 30 | > 30 | > 30 |  | > 30 |
| Cc1ccc(S(=O)(=O)NC(=O)NN2CC3CCCC3C2)cc1 (stereo not drawn) [GLICLAZIDE] | > 10 | > 10 | > 10 | > 30 | > 30 | > 10 | > 10 | > 30 | > 10 | > 30 | > 10 |
| CC(C)Cn1cnc2c(N)nc3ccccc3c21 [IMIQUIMOD] | > 10 | > 10 | > 10 | > 10 | 28.3 | 13.8 | > 30 | > 10 | > 10 | > 10 | > 10 |
| Nc1nc(N)nc(-c2cc(Cl)ccc2Cl)n1 [IRSOGLADINE] | > 30 | > 30 | > 30 | > 30 | > 30 | 22 | > 30 | > 30 | > 30 | > 30 | > 30 |
| CNC(C)CCC=C(C)C (stereo not drawn) [ISOMETHEPTENE] |  | > 30 |  |  | > 30 |  | > 30 |  | > 30 |  | > 30 |
| C[C@](N)(Cc1ccc(O)c(O)c1)C(=O)O [METHYLDOPA] | > 10 | > 10 | > 10 | > 30 | > 30 | > 10 | > 10 | > 10 | > 10 | > 30 | > 10 |
| O=C(NCCN1CCOCC1)c1ccc(Cl)cc1 [MOCLOBEMIDE] | > 10 | > 10 | > 10 | > 10 | > 30 | > 10 | > 10 | > 10 | > 10 | > 10 | > 10 |
| CC[C@@H]1C(=O)OC[C@@H]1Cc1cncn1C [PILOCARPINE] | > 10 | > 30 |  | > 10 | > 30 | > 10 | > 30 | > 10 | > 30 | > 10 | > 30 |
| CCCN(CCC)C(=O)C(CCC(=O)O)NC(=O)c1ccccc1 (stereo not drawn) [PROGLUMIDE] | > 10 | > 30 | > 10 | > 30 | > 30 | > 10 | > 30 | > 30 | > 30 | > 30 | > 30 |
| C[C@]12CC[C@H]3[C@@H](CCC4=CC(=O)CC[C@@]43C)[C@@H]1CC[C@@H]2O [TESTOSTERONE] | > 10 | > 10 | > 10 | > 30 |  | > 10 | > 10 | > 10 | > 10 | > 30 | > 10 |
